Results as given in patent publication US9765075B2, “Substituted bridged urea analogs as sirtuin modulators” (GLAXOSMITHKLINE LLC, priority 2013, dated 2017).
Read-outs that look alike come from different tables or passages of the source.

Target: T1, SIRT1 (Homo sapiens, UniProt Q96EB6)
T1 sequence (Q96EB6 1-747): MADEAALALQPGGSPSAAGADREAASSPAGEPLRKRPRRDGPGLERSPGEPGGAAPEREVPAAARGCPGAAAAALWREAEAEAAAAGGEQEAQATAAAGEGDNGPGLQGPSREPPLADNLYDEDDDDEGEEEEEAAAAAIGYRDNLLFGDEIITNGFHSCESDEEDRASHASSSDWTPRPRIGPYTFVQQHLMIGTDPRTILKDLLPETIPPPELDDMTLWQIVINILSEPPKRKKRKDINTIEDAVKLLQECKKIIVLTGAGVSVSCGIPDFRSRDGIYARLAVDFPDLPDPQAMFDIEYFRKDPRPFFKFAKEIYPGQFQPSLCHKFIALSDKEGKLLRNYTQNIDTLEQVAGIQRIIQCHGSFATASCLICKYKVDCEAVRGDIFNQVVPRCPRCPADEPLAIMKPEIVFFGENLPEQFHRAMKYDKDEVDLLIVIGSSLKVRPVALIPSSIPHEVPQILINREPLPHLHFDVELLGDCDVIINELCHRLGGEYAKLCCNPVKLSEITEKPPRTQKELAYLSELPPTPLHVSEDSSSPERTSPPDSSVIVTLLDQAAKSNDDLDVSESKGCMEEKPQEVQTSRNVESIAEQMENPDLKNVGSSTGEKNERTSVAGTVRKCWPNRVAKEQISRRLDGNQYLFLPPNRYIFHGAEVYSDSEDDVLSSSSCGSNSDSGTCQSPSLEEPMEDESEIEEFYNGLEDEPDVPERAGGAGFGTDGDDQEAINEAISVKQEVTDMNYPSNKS
Experiment: Trp mass spectrometry assay (SIRT1 activation)
Type: biochemical
Settings: for Emax: percent maximum fold activation of SIRT1, read-out: Tryp % Fold Act
In short: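 N-His-tagged SIRT1 (10 nM), expressed in E. coli, was incubated with 0.5 μM Ac-RHKK(Ac)W-NH2 peptide and 120 μM NAD+ for 25 min at 25 °C in HEPES pH 7.5 with […]. The reaction was stopped with formic acid and O-acetyl-ADP-ribose or deacetylated peptide was quantified by mass spectrometry. Results are given as EC1.5 and percent maximal activation relative to DMSO control.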

[1] = concentration of test compound that results in 150% activation of SIRT1, Trp peptide substrate
[2] = Trp mass spectrometry assay, EC1.5 = concentration giving 150% activation of SIRT1
[3] = Trp mass spectrometry assay, EC1.5 = concentration of test compound that results in 150% activation of SIRT1

O=C(Nc1cccnc1)N1c2nc(-c3cncc(C(F)(F)F)c3)ccc2N2CCC[C@H]1C2 [Example 392]
Tryp AVG EC1.5 (μM) [1]: A (EC1.5<1 μM)
Emax (Trp peptide substrate): ≥ 150%

CC(C)(C)OC(=O)NCc1cn(-c2cccc(NC(=O)N3c4nc(-c5cccc(C(F)(F)F)c5)ccc4N4CC[C@H]3C4)c2)nn1 [Example 605]
Tryp AVG EC1.5 (μM) [1]: A (EC1.5<1 μM)
Emax (Trp peptide substrate): ≥ 150%

COc1cc(NC(=O)N2c3nc(-c4cccc(C(F)(F)F)c4)ccc3N3CC[C@H]2C3)nc(OC)n1 [Example 22]
Emax (Trp mass spectrometry assay): ≥ 150%

O=C(Nc1cccnc1)N1c2nc(-c3cncc(C(F)(F)F)c3)ccc2N2C[C@@H](O)[C@H]1C2 [Example 705]
Tryp AVG EC1.5 (μM) [2]: B (EC1.5 1-25 μM)
Emax (Trp mass spectrometry assay): ≥ 150%

Cc1ccncc1-c1ccc2c(n1)N(C(=O)Nc1ccccn1)[C@H]1CCCN2C1 [Example 505]
Tryp AVG EC1.5 (μM) [1]: C (EC1.5>25 μM)
Emax (Trp peptide substrate): < 150%

NCCCCCC(=O)NCc1cn(-c2cccc(NC(=O)N3c4nc(-c5cccc(C(F)(F)F)c5)ccc4N4CC[C@H]3C4)c2)nn1 [Example 639]
Tryp AVG EC1.5 (μM) [2]: A (EC1.5<1 μM)
Emax (Trp mass spectrometry assay): ≥ 150%

O=C(Nc1ccncn1)N1c2nc(-c3cccc(C(F)(F)F)c3)ccc2N2CCC1CC2 [Example 172]
Tryp AVG EC1.5 (μM) [3]: B (EC1.5 1-25 μM)
Emax (Trp mass spectrometry assay): ≥ 150%

Cc1cc(C)nc(NC(=O)N2c3nc(-c4cccc(C(F)(F)F)c4)ccc3N3CCC[C@H]2C3)c1 [Example 30]
Emax (Trp mass spectrometry assay): ≥ 150%

Cc1nc(NC(=O)N2c3nc(-c4cccc(N(C)C)c4)ccc3N3CCC[C@H]2C3)sc1C [Example 383]
Tryp AVG EC1.5 (μM) [1]: A (EC1.5<1 μM)
Emax (Trp peptide substrate): ≥ 150%

COc1cc(NC(=O)N2c3nc(-c4cccc(C(F)(F)F)c4)ccc3N3CCC[C@@H]2C3)ncn1 [Example 274]
Tryp AVG EC1.5 (μM) [1]: A (EC1.5<1 μM)
Emax (Trp peptide substrate): ≥ 150%

O=C(Nc1cccnc1)N1c2nc(-c3cccc(Cl)c3)ccc2N2CCC1CC2 [Example 496]
Tryp AVG EC1.5 (μM) [1]: A (EC1.5<1 μM)
Emax (Trp peptide substrate): ≥ 150%

O=C(Nc1cccc(-c2cnco2)n1)N1c2nc(-c3cccc(C(F)(F)F)c3)ccc2N2CC[C@H]1C2 [Example 588]
Tryp AVG EC1.5 (μM) [1]: A (EC1.5<1 μM)
Emax (Trp peptide substrate): ≥ 150%

O=C(Nc1ccccn1)N1c2nc(-c3ccc(-c4nnn[nH]4)cc3)ccc2N2CC[C@H]1C2 [Example 347]
Tryp AVG EC1.5 (μM) [1]: A (EC1.5<1 μM)
Emax (Trp peptide substrate): ≥ 150%

Cc1nc(NC(=O)N2c3nc(-c4cncc(C(F)(F)F)c4)ccc3N3C[C@@H](O)[C@H]2C3)sc1C [Example 697]
Tryp AVG EC1.5 (μM) [2]: B (EC1.5 1-25 μM)
Emax (Trp mass spectrometry assay): ≥ 150%

O=C(Nc1ccnc(OC[C@H](O)CO)c1)N1c2nc(-c3cccc(F)c3)ccc2N2CC[C@H]1C2 [Example 73]
Emax (Trp mass spectrometry assay): ≥ 150%

COc1cc(NC(=O)N2c3nc(-c4cncc(C(F)(F)F)c4)ccc3N3CCC[C@H]2C3)ncn1 [Example 394]
Tryp AVG EC1.5 (μM) [1]: A (EC1.5<1 μM)
Emax (Trp peptide substrate): ≥ 150%

N#Cc1cncc(-c2ccc3c(n2)N(C(=O)Nc2ccccn2)[C@H]2CCCN3C2)c1 [Example 557]
Tryp AVG EC1.5 (μM) [1]: A (EC1.5<1 μM)
Emax (Trp peptide substrate): ≥ 150%

O=C(Nc1ccncn1)N1c2nc(-c3cncc(Cl)c3)ccc2N2CC[C@H]1C2 [Example 249]
Tryp AVG EC1.5 (μM) [1]: B (EC1.5 1-25 μM)
Emax (Trp peptide substrate): ≥ 150%

COc1cc(NC(=O)N2c3nc(-c4cccc(C(F)(F)F)n4)ccc3N3CC[C@H]2C3)ncn1 [Example 339]
Tryp AVG EC1.5 (μM) [1]: B (EC1.5 1-25 μM)
Emax (Trp peptide substrate): ≥ 150%

O=C(Nc1ccncc1Cl)N1c2nc(-c3cccc(C(F)(F)F)c3)ccc2N2CC[C@H]1C2 [Example 96]
Tryp AVG EC1.5 (μM) [3]: B (EC1.5 1-25 μM)
Emax (Trp mass spectrometry assay): ≥ 150%

CC(=O)c1cccc(NC(=O)N2c3nc(-c4cccc(C(F)(F)F)c4)ccc3N3CC[C@H]2C3)c1 [Example 671]
Tryp AVG EC1.5 (μM) [2]: A (EC1.5<1 μM)
Emax (Trp mass spectrometry assay): ≥ 150%

Cc1nc(NC(=O)N2c3nc(-c4cncc(Cl)c4)ccc3N3CCC[C@H]2C3)sc1C [Example 402]
Tryp AVG EC1.5 (μM) [1]: A (EC1.5<1 μM)
Emax (Trp peptide substrate): ≥ 150%

CS(=O)(=O)c1cncc(-c2ccc3c(n2)N(C(=O)Nc2cccnn2)[C@H]2CCCN3C2)c1 [Example 380]
Tryp AVG EC1.5 (μM) [1]: A (EC1.5<1 μM)
Emax (Trp peptide substrate): ≥ 150%

CN(C)c1cccc(-c2ccc3c(n2)N(C(=O)Nc2ccc(F)cn2)[C@@H]2CCCN3C2)c1 [Example 253]
Tryp AVG EC1.5 (μM) [1]: C (EC1.5>25 μM)
Emax (Trp peptide substrate): < 150%
